The record followed here is paper PMC5814560, “6-Thioguanine is a noncompetitive and slow binding inhibitor of human deubiquitinating protease USP2” (Scientific Reports, 2018).

SMILES strings stand for the structures.

For assay [1], the target named is T1, USP2 (ubiquitin-specific protease 2) (Homo sapiens, UniProt O75604). Kind of assay: X-ray crystal structure (soak, […] Å, about […] occupancy); Ub-AFC deubiquitination kinetics (Kis […], IC50 […]). The format is biochemical. Details: catalytic domain, residues 258–605; with ubiquitin (Ub) in the crystal.
Target sequence in this assay (O75604 258-605, other chains not shown): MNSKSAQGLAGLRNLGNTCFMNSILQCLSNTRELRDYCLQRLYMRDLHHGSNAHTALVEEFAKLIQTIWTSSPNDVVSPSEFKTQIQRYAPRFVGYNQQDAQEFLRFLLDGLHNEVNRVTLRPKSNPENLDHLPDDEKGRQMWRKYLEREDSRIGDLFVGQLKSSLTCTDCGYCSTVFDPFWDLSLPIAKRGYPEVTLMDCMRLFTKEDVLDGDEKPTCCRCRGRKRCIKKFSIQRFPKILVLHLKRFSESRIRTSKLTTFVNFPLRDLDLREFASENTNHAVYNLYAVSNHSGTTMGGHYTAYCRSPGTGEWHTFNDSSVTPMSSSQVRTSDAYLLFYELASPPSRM
For assay [2], the target named is T1, USP2 (ubiquitin-specific protease 2). Kind of assay: Ub-AFC deubiquitination kinetics, noncompetitive fit; very weak, called ineffective by the authors. It counts as biochemical. Details: catalytic domain, residues 258–605. The following applies: read-out: Kis.
Target sequence in this assay (O75604 258-605): as the sequence (O75604 258-605, other chains not shown) above

In turn, `Nc1nc2nc[nH]c2c(=S)[nH]1` [6TG, 6-thioguanine] had a Ki in assay [1] of 24.6 ± 1.8 µM.
`Sc1ncnc2nc[nH]c12` [6MP, 6-mercaptopurine]: the Ki in assay [2] is 349 ± 23.7 µM.
